The target of one assay is T1, human lysosomal α-Gal A (Homo sapiens, UniProt P06280).
T1 construct: made in house; host or cells: Sf-9 insect cells, recombinant baculovirus
T1 sequence (P06280 32-429): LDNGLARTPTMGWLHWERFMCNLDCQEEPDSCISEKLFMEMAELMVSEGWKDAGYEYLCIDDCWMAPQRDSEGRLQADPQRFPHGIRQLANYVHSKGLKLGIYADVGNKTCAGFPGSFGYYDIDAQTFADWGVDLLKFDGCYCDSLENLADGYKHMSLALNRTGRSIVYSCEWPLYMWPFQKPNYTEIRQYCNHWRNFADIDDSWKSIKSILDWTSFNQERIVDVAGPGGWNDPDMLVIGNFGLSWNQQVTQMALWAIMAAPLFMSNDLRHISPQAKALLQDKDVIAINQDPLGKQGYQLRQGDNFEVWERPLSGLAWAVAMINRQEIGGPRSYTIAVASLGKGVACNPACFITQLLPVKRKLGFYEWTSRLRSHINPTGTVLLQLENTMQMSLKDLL
In words: In vitro inhibition of α-Gal A (recombinant, expressed in Sf-9 insect cells). Format: biochemical. As to conditions: for IC50 / Ki: p-nitrophenyl-α-D-galactopyranoside as substrate; for IC50: pH 4.5; for reduction of inhibitory potential / affinity for α-Gal A relative to DGJ: compared with DGJ; for Ki: read-out: Ki for α-Gal A, from the slope of Lineweaver-Burk plots.

For a further assay, the target named is T2, mutant α-Gal A (R301Q) (Homo sapiens, UniProt P06280, R301Q).
T2 sequence (P06280 32-429 R301Q): T1 sequence (P06280 32-429) with R270Q
As to the kind of experiment: Intracellular enhancement of α-Gal A activity in Fabry lymphoblasts. On the set-up: endogenous in cells; host or cells: Epstein-Barr virus-transformed lymphoblasts from a Fabry patient (R301Q). Type of assay: cell-based. As to conditions: for intracellular α-Gal A activity in Fabry lymphoblasts (summary): concentration ranges of 10-1000 μM; for increase of α-Gal A enzyme activity in R301Q lymphoblasts: inhibitor at 100 μM; for enhancement of α-Gal A activity in R301Q lymphoblasts: inhibitor at 1000 μM. On the procedure:
FIG. 4B depicts results in which each inhibitor was added to the culture medium of R301Q lymphoblasts at a concentration of 100 μM. Cells were subsequently incubated for 4 days. After being washed twice with phosphate-buffered saline, the intracellular enzyme activity was determined with 4-MU-α-Gal as the substrate.
R301Q lymphoblasts were cultured with DGJ (4) ([…]), α-allo-HNJ (9) (▪), α-galacto-HNJ (10) (▴), or β-1-C-butyl-DGJ (16) (♦) at 1-1000 μM for 4 days before being collected for enzyme assay.
In FIG. 6B, R301Q lymphoblasts were cultured with calystegine B2 (18) and the results are shown therein. In FIG. 6C, R301Q lymphoblasts were cultured with N-methyl calystegine A3 (19) and the results are shown therein. In FIG. 6D R301Q lymphoblasts were cultured with N-methyl calystegine B2 (20) at 100-1000 μM for 4 days before being collected for enzyme assay and the results are shown therein.
The Epstein-Barr virus-transformed lymphoblast lines from a normal adult and a Fabry patient with R301Q mutation in α-Gal A (38) were cultured in RPMI-1640 medium (Nissui Pharmaceutical Co., Tokyo, Japan) supplemented with 10% fetal calf serum (FCS) at 37° C. under 5% CO2. Human fibroblasts from Gaucher and GM1-gangliosidosis patients were cultured in McCoy 5A medium supplemented with 10% FCS at 37° C. under 5% CO2.
Cells were cultured in the presence or absence of inhibitor for 4 days. After being washed twice with phosphate-buffered saline (PBS), the cells were harvested and homogenized in 200 μl of H2O, and 10 μl of the supernatant obtained by centrifugation at 10,000 g was incubated at 37° C. with 50 μl of the substrate solution composed by 6 mM 4-methylumbelliferyl α-D-galactoside (4-MU-α-Gal) and 90 mM N-acetylgalactosamine in 0.1 M citrate buffer (pH 4.5) for enzyme assay. One unit of intracellular enzyme activity was defined as one nmol of 4-methylumbelliferone released per hour at 37° C.

For assay [1], the target named is human β-glucocerebrosidase (Homo sapiens, UniProt P04062). As to the kind of experiment: In vitro inhibition of human β-glucocerebrosidase. Format: biochemical. The following applies: for IC50: 0.1M citrate buffer (pH 5.2), 4-MU-β-Glu as substrate.
Chain of human β-glucocerebrosidase (P04062 40-536): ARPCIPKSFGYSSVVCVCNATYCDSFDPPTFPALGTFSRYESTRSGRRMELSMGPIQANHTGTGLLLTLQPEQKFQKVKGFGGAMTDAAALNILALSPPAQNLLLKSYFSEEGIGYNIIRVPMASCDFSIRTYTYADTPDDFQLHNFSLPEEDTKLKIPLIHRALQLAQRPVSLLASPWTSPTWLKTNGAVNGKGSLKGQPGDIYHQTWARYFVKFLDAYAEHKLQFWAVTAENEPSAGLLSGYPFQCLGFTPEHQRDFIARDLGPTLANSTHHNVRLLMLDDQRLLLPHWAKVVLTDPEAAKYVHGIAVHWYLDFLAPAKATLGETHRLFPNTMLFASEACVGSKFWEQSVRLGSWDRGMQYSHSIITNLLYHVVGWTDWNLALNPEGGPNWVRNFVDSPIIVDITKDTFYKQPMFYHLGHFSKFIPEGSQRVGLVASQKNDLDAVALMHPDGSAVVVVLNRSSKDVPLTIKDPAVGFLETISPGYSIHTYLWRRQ
The target of assay [2] is T3, glucocerebrosidase (β-Glu), N370S/N370S (Homo sapiens, UniProt P04062, N409S).
T3 construct: endogenous in cells; host or cells: human Gaucher patient fibroblasts, genotype N370S/N370S
T3 sequence (P04062 40-536 N409S): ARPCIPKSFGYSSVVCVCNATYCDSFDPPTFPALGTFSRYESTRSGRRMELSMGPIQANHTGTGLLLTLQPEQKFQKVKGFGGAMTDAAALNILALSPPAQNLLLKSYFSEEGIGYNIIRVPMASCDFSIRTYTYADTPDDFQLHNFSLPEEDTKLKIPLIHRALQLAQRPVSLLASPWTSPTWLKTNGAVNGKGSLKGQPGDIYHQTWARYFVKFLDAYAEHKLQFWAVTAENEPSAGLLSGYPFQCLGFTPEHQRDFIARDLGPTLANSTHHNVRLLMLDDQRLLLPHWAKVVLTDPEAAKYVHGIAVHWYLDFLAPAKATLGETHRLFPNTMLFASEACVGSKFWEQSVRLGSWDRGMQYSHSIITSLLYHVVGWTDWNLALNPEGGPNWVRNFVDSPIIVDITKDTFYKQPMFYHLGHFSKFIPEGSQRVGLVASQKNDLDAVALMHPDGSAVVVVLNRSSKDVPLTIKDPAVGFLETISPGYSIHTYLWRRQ
As to the kind of experiment: Intracellular enhancement of β-Glu activity in Gaucher fibroblasts (N370S/N370S). Format: cell-based. The following applies: for intracellular β-Glu activity in Gaucher fibroblasts (summary): concentration ranges of 0.05-100 μM.

[3] abbreviates: IC30 and (Ki)*: IC50 values (inhibitor concentration giving 50% inhibition) for α-Gal A.
The mark [4] stands for this setting: read-out: IC30 and (Ki)*: IC50 values (inhibitor concentration giving 50% inhibition) for α-Gal A.
The mark [5] stands for this setting: N370S/N370S, compound at 10 μM, 5 days.
Where [6] appears, read: N370S/N370S, compound at 100 μM, 5 days.

Where a chain is given by its changes, count along the chain named. Where two headings read alike, the source gives them in different places.

As for `OCC1NCC(O)C(O)C1O` (stereo not drawn) [compound 2, 1-Deoxymannojirimycin], the “inhibition of α-Gal A (in words)” value on human lysosomal α-Gal A is listed as “no appreciable inhibition even at 1000 μM”.

For `OCC1NCC(O)C(O)C1O` (stereo not drawn) [compound 3, 1-Deoxy-3-epi-nojirimycin], at human lysosomal α-Gal A, the “inhibition of α-Gal A (in words)” value is listed as “no appreciable inhibition even at 1000 μM”.

With `OC[C@H]1NC[C@H](O)[C@H](O)[C@H]1O` [compound 5, 1-deoxy-3,4-diepi-nojirimycin], on human lysosomal α-Gal A, the “inhibition of α-Gal A (in words)” value is reported as “no appreciable inhibition even at 1000 μM”.

On to `OCC1NCCC(O)C1O` (stereo not drawn) [compound 6, 1,2-dideoxy-galactonojirimycin], for which the IC50 on human lysosomal α-Gal A (setting [3]) was found to be 250 µM. Moreover, the “reduction of inhibitory potential / affinity for α-Gal A relative to DGJ” value at human lysosomal α-Gal A is “over 6000 fold”.

Consider `OCC1NC(CO)C(O)C(O)C1O` (stereo not drawn) [compound 7, α-Homonojirimycin], for which the “inhibition of α-Gal A (in words)” value at human lysosomal α-Gal A is listed as “not an inhibitor”. The IC50 at human lysosomal α-Gal A (setting [3]) is > 1000 µM.

With `OCC1NC(CO)C(O)C(O)C1O` (stereo not drawn) [compound 8, α-homomannojirimycin], at human lysosomal α-Gal A, the “inhibition of α-Gal A (in words)” value was “weak inhibitor”. The IC50 on human lysosomal α-Gal A (setting [3]) was 464 µM.

As a reminder, the Ki is a measure of affinity in units of concentration, obtained from inhibition or displacement. For `OC[C@H]1N[C@H](CO)[C@@H](O)C(O)[C@H]1O` (stereo partly drawn) [compound 9, α-homoallonojirimycin], at human lysosomal α-Gal A, the “inhibition mode toward α-Gal A (Lineweaver-Burk plots)” value is on record as “competitive inhibitors” and the inhibition constant Ki was found to be 2.6 µM. Besides, the IC50 on human lysosomal α-Gal A (setting [4]) is 4.3 µM. Besides, at mutant α-Gal A (R301Q), the “intracellular α-Gal A activity in Fabry lymphoblasts (summary)” value (“intracellular α-Gal A activity” below) is on record as “effectively increase”. Also, on mutant α-Gal A (R301Q) (4 days), the “increase of α-Gal A enzyme activity in R301Q lymphoblasts” value was found to be 2.4 fold and the “enhancement of α-Gal A activity in R301Q lymphoblasts” value turned out to be 3.9 fold.

Take `OC[C@H]1N[C@H](CO)[C@H](O)C(O)[C@H]1O` (stereo partly drawn) [compound 10, α-Homogalactonojirimycin]: at human lysosomal α-Gal A, the “inhibition mode toward α-Gal A (Lineweaver-Burk plots)” value is “competitive inhibitors”, the “reduction of inhibitory potential / affinity for α-Gal A relative to DGJ” value is given as “approximately 4 fold” and the Ki worked out at 0.17 µM. For the same compound, the IC50 at human lysosomal α-Gal A (setting [4]) was 0.21 µM. Also, on mutant α-Gal A (R301Q), the “intracellular α-Gal A activity” value is recorded as “effectively increase”. At mutant α-Gal A (R301Q) (4 days), the “increase of α-Gal A enzyme activity in R301Q lymphoblasts” value came out at 5.2 fold and the “enhancement of α-Gal A activity in R301Q lymphoblasts” value came out at 12.5 fold.

With `CN1CC(O)C(O)C(O)C1CO` (stereo not drawn) [compound 11, N-Methyl-1-deoxygalactonojirimycin], the IC50 at human lysosomal α-Gal A (setting [3]) worked out at 96 µM.

On to `CCN1CC(O)C(O)C(O)C1CO` (stereo not drawn) [compound 12, N-Ethyl-1-deoxygalactonojirimycin], for which the IC50 on human lysosomal α-Gal A (setting [3]) was 306 µM.

As for `CCCN1CC(O)C(O)C(O)C1CO` (stereo not drawn) [compound 13, N-Propyl-1-deoxygalactonojirimycin], the IC50 at human lysosomal α-Gal A (setting [3]) came out at 301 µM.

Turning to `OCCN1CC(O)C(O)C(O)C1CO` (stereo not drawn) [compound 15, N-Hydroxyethyl-1-deoxygalactonojirimycin], on human lysosomal α-Gal A (setting [3]), the IC50 was found to be 520 µM.

As to `CN1C2CCC1(O)C(O)C(O)C2` (stereo not drawn) [compound 19, N-methyl calystegine A3], the “intracellular α-Gal A activity” value on mutant α-Gal A (R301Q) is on record as “effectively increase”. For the same compound, the “α-Gal A activity in R301Q lymphoblasts with increasing concentration of calystegine compound” value at mutant α-Gal A (R301Q) (range 100-1000 μM, 4 days, FIG. 6) is reported as “elevated with increasing concentration”.

For `O[C@@H]1[C@@H](O)C[C@]2(O)CC[C@H]1N2` [compound 22, calystegine A5], in assay [1], the IC50 is 31 µM.

As to `O[C@@H]1C[C@]2(O)N[C@H]1C[C@@H](O)[C@@H]2O` [compound 23, calystegine B1], in assay [1], the IC50 worked out at 2.5 µM. The “intracellular β-Glu activity in Gaucher fibroblasts (summary)” value (from here on “intracellular β-Glu activity”) in assay [2] was “effectively enhance”.

As for `O[C@@H]1[C@@H](O)[C@H]2CC[C@](O)(N2)[C@@H]1O` [compound 24, calystegine B3], the IC50 in assay [1] came to 76 µM.

On to `O[C@@H]1[C@H](O)[C@H]2CC[C@](O)(N2)[C@H]1O` [compound 25, calystegine B4], for which the IC50 in assay [1] came out at 82 µM.

Regarding `OC1CC2(O)NC1C(O)C(O)C2O` (stereo not drawn) [compound 26, calystegine C1], the IC50 in assay [1] came out at 2.5 µM. The “intracellular β-Glu activity” value in assay [2] is on record as “effectively enhance”.

On to `OC[C@H]1NC[C@@H](O)[C@@H]1O` [compound 28, 1,4-dideoxy-1,4-imino-D-arabinitol], for which the IC50 in assay [1] was 160 µM.

`CCCCN1C[C@H](CO)[C@@H](O)[C@H](O)C1` [compound 34, N-Butyl-isofagomine]: the IC50 in assay [1] amounted to 44 µM. Also, the “elevation of residual β-Glu activity in Gaucher cells” value (“elevation of residual β-Glu activity” for short) is reported as 73% in assay [2] (setting [5]) and 56% in assay [2] (setting [6]). In addition, the “intracellular β-Glu activity” value in assay [2] is given as “effectively enhance”.

`OCC1CN(CCCC2CCCCC2)CC(O)C1O` (stereo not drawn) [compound 35, N-(3-cyclohexylpropyl)-isofagomine] had an IC50 in assay [1] of 100 µM. Moreover, the “elevation of residual β-Glu activity” value is recorded as 106% in assay [2] (setting [5]) and 47% in assay [2] (setting [6]). In addition, the “intracellular β-Glu activity” value in assay [2] is recorded as “effectively enhance”.

On to `OCC1CN(CCCc2ccccc2)CC(O)C1O` (stereo not drawn) [compound 36, N-(3-phenylpropyl)-isofagomine], for which the IC50 in assay [1] was found to be 69 µM. Moreover, the “elevation of residual β-Glu activity” value in assay [2] (setting [5]) is 50%; in assay [2] (setting [6]) it was 54%. In addition, the “intracellular β-Glu activity” value in assay [2] is “effectively enhance”.

In assay [1], `CC(C)=CCC/C(C)=C\CC/C(C)=C/CN1CC(O)C(O)C(CO)C1` (stereo not drawn) [compound 37, N-[(2E,6Z,10Z)-3,7,11-trimethyldodecatrienyl]-isofagomine] showed an IC50 of 1.5 µM. Besides, in assay [1] (compared with compound 32 (so in the source)), the “increase in potency against β-Glu compared with the 4 carbon chain compound” value worked out at 30 fold. In addition, the “elevation of residual β-Glu activity” value in assay [2] (setting [5]) stood at 43%. In assay [2] (setting [6]), the “decrease of residual β-Glu activity in Gaucher cells” value is listed as 53%. For the same compound, the “intracellular β-Glu activity” value in assay [2] was “effectively enhance”.

DNJ bisulfite [compound 32] came in with an IC50 in assay [1] of 28 µM.

The values are drawn from patent publication US20150258129A1, “Method for Increasing the Activity of Lysosomal Enzymes” (Mount Sinai School of Medicine of New York University, priority 1998, published 2015).
